Columns and labels:
[1] = test system: patients with Alzheimer's type dementia; assay: Case reports, Mild Cognitive Impairment (MCI) and Dementia (Example 1); format: in vivo, human
Source text: Patient 1A was an elderly person with history of impairment of cognitive function. Presumptive diagnosis of possible dementia of Alzheimers type.
Patient 1B was an elderly retired person with a 7 year history of Alzheimer's type dementia treated with the cholinesterase inhibitor Donepezil. […] Their cognitive function has gradually deteriorated since this time. […] Their reading was more fluent being better able to follow the meaning of the text. There was also improvement in their Stroop Test particularly in part three, the more cognitively demanding where their accuracy improved from 50 to 90%.

[2] = test system: patients with reading / learning difficulties; assay: Case reports, Reading Disorder (Example 2); format: in vivo, human
Source text: They noticed greater contrast when reading. This had reduced their dependency upon spectacles which they had relied on for many years. […] Patient described an unexpected improvement in the clarity and contrast of the words and letters, further commenting on the improvement in their ability to both see and comprehend the words simultaneously. Patient also described a reduction in the instability or movement of the words on the page which had always been experienced when reading. Also further commented on the subjective improvement in vision, with an apparent improved depth perception. […] Patient noticed greater contrast in the text when reading and this had reduced their dependency upon spectacles which they had relied on for many years. […] The patient has been able to sustain employment with considerable effort. Reading had always been effortful and largely unrewarding. Patient had described difficulties tracking along the text being frequently distracted by the lines above and below becoming lost on the page as well as having little recall or comprehension of what they had read.

[3] = test system: patients with closed head injury; assay: Case reports, Acquired Brain Injury (Example 4); format: in vivo, human
[4] = test system: patients with visual fatigue / impaired visual acuity; assay: Case reports, Visual fatigue / visual acuity (Example 5); format: in vivo, human; settings: for three-dimensional delicate work (visual acuity and depth perception): Patient 5d
Source text: Adult with a history of ADHD stabilised on a combination of a psychostimulant and sodium valproate.
Adult diagnosed with ADHD and stable on treatment with psychostimulants. […] Previously always relied on glasses to read because of an astigmatism.
Adult previously diagnosed with ADHD and no longer taking stimulant medication.

[5] = test system: patients with bipolar mood disorder; assay: Case report, Bipolar (Example 8); format: in vivo, human
patients with PTSD [6] = assay: Case reports, PTSD (Example 9); format: in vivo, human
Source text: Patient 9A: Two year history of PTSD & Major Depression, unable to work for nine months. […] Eight months specialist psychiatric treatment including specific PTSD therapy program. […] No history of premorbid ASD or ADHD, possible mild reading difficulties.
Patient 9B: 40 year history of severe PTSD associated with severe re-experiencing phenomena, absence of any family relationships and social withdrawal, anger outbursts, chronic sleep disturbance exaggerated startle reflex and hypervigilance. Comorbid conditions including chronic major depression, alcohol dependence. Attended regular psychiatric treatment for in excess of five years. Treated with a combination of regular outpatient psychotherapy and pharmacotherapy including antidepressants and antipsychotic medications.
Patient 9C: history of PTSD associated with chronic impairment in previous alcohol dependence. Previous psychiatric admissions as a consequence of condition. Long-term antidepressant therapy together with intermittent use of antipsychotic medication.

[7] = test system: patient with spina bifida, ADHD, learning difficulties; assay: Case report, Spina Bifida (Example 11); format: in vivo, human
[8] = test system: patient with chronic neck pain; assay: Case report, Chronic Pain (Example 12); format: in vivo, human
Protocol: A further sublingual dose of phenyloin 1 mg was taken 15 mins after the first dose.

[9] = test system: individuals with symptoms of ADHD
patients with PTSD [10] = settings: cited from earlier work
[11] = test system: mood stabilisation or epileptic symptoms or events; settings: per day; cited from earlier work
[12] = Patient 4A, test dose less than 3 mg via buccal mucosa
[13] = Patient 4B, test sublingual dose 1 mg

## O=C1NC(=O)C(c2ccccc2)(c2ccccc2)N1 [phenyloin, 5,5-diphenylhydantoin]
[1]; Patient 1A, possible dementia of Alzheimers type, 25 mg
  cognitive function, clinical response: some improvement but benefit was lost on continuation of this dose
[1]; Patient 1A, 3 mg daily
  duration of sustained benefit: over 24 months
[1]; Patient 1A, daily dose of 3 mg in divided doses orally
  cognitive function, clinical response: significant improvement
[1]; Patient 1A, withdrawal after 25 mg
  cognitive function after withdrawal of medication: transient improvement followed by a return to pre-phenyloin functioning
[1]; Patient 1B (treated with Donepezil), test dose 1 mg sublingual
  ability to read a standard text: significant improvement in their ability to read a standard text
[1]; Patient 1B, 1 mg sublingual
  time to improvement in reading after dose: ≤ 10 min
[1]; Patient 1B, 1 mg sublingual single dose
  functioning the following day after single dose: more able to initiate activities
[1]; Patient 1B, 1 mg sublingual, improved from 50
  Stroop Test part three accuracy after dose: 90%
[2]; Patient 2A, 1 mg daily
  visual acuity / contrast when reading: visual acuity had appeared to improve
[2]; Patient 2A
  benefits at a higher dose: not sustained at a higher dose
[2]; Patient 2B, 1 mg sub lingual dose
  reading, pseudo word component of WAIT: improved ability to read
[2]; Patient 2B, dose increased to 50 mg
  benefits at increased dose: beneficial effects were lost
[2]; Patient 2C, 1 mg daily
  visual acuity / contrast in the text when reading: visual acuity had appeared to improve
[2]; Patient 2C
  benefits at a higher dose: not sustained at a higher dose
[2]; Patient 2D, 0.5 mg dose
  ability to read: significant improvement in their ability to read with less effort
[3]; Patient 4A, dose increased, second day
  clinical response to increased dose, following day: no dramatic improvement
[3]; Patient 4A, phenyloin ceased, followed by deterioration to pre-phenyloin functioning
  functioning over five days after cessation: gradual improvement in their functioning
[3]; Patient 4A, repeated sublingual dose
  developmental Eye Movement Test and Stroop test: consistent with the improved cognitive functioning
[3]; Patient 4A, same increased dose, third day
  clinical response to repeated dose, third day: noticeable deterioration in their ability to focus and organize their thinking
[3]; [12]
  ability to focus: dramatic and unexpected improvement in their ability to focus
  motor tics and vocalisations: repetitive chanting and hand movements ceased
[3]; Patient 4B, 3 mg
  reading: began reading for the first time in 10 years
[3]; Patient 4B, initial dose of 3 mg
  ability to organise and undertake tasks: unexpected and dramatic improvement in the ability to organise and undertake tasks
[3]; [13]
  effort required for communication: reduction in the effort required for communication
  subjective vision: enhanced clarity of vision
[3]; Patients 4A and 4B, further dose
  irritability and sense of being overwhelmed after a further dose: temporary relief
[3]; both cases (Patients 4A and 4B)
  duration of sustained improvements: over 12 months
[4]; Patient 5a, ADHD on psychostimulant and sodium valproate, 4 mg added
  overall functioning: further improvement in their overall functioning
[4]; Patient 5a, 4 mg added
  visual fatigue: visual fatigue no longer occurred
[4]; Patient 5b, ADHD on psychostimulants, 2 mg daily
  function: significant improvement in function
[4]; Patient 5b, 2 mg daily
  visual acuity: apparent improvement in their visual acuity
[4]; Patient 5c, 1 mg
  visual acuity whilst reading: immediate and unexpected improvement in visual acuity
[4]; Patient 5e, low dose
  judging distances when playing lawn bowls: improvement in their ability to accurately identify distances
[4]; Patient 5f, low dose
  visual judgement when playing soccer: improvement in visual judgement
[4]; 1 mg
  three-dimensional delicate work (visual acuity and depth perception): most consistent improvement
[4]; 2 mg
  three-dimensional delicate work (visual acuity and depth perception): improved
[5]; Patient 8A, bipolar mood disorder, compounded 2 mg capsule
  function: significant improvement in function
[5]; Patient 8A, 2 mg capsule
  improvements noted: enhanced organisation and planning • reduced effort required for social interaction • enhanced clarity of thought • a sense of being psychologically more normal
[5]; patients with bipolar spectrum disorders, much higher dose
  clinical effect of a much higher dose: good effect
[5]; some patients with bipolar mood disorder, very low dose added
  executive functioning: significant improvement in their executive functioning
Patients with PTSD [6]; Patient 9A
  duration improvements maintained: over three months
Patients with PTSD [6]; Patient 9A, 2 mg daily
  time to reported improvements: ≤ 24 h
Patients with PTSD [6]; Patient 9A, dose reduced to 1 mg and increased to 4 mg
  efficacy after dose change: reduction in efficacy
Patients with PTSD [6]; Patient 9B, low dose
  overall improvement described: 50%
Patients with PTSD [6]; Patient 9C
  most stable and efficacious dose: 0.5 mg daily
Patients with PTSD [6]; Patient 9C, 0.5 mg daily
  stable improvements: reduction of intrusive and negative thoughts • Enhanced interpersonal communication • Reduced effort of reading • Enhanced quality of sleep
Patients with PTSD [6]; Patient 9C, 3 mg
  adverse effects: became irritable and experienced word finding difficulties
  intrusive thoughts, mood stability and concentration: initial improved ability to dismiss and ignore distressing, intrusive thoughts
Patients with PTSD [6]; Patient 9C, periods of complete withdrawal
  functioning during complete withdrawal: return to their pre-phenyloin functioning including a worsening of their symptoms of PTSD
Patients with PTSD [6]; patients with PTSD, Ultra low dose
  functional capacity and symptoms of PTSD: significant improvements in functional capacity as well as a reduction in the symptoms of PTSD
[7]; Patient 11A
  duration of sustained improvements: over 12 months
[7]; Patient 11A (on low dose methylphenidate), sublingual dose 1 mg
  social interaction, conversation, reading aloud, fine motor control and handwriting: significant improvement
[7]; Patient 11A, daily in two divided doses
  dose associated with optimal response: 1.5 mg
[7]; Patient 11A, dose increased to 2 mg
  efficacy after dose increase: loss of efficacy
[8]; additional sublingual dose 1 mg on top of 3 mg modified release
  freedom of movement without pain: further acute improvement in the freedom of movement without pain
[8]; daily dose 3 mg modified release capsule
  control of chronic pain on maintenance: control of the chronic pain was maintained
[8]; sublingual 1 mg
  duration of relief: approximately 10 min
  vision during relief: enhancement in their vision
[8]; sublingual 1 mg, from 10/10 (most severe) before dose
  intensity of the pain after dose: 5/10
[8]; ultra low dose
  invasive and distressing nature of cervical pain: reduced with unexpected efficacy and rapidity
[9]; Patient 3A
  duration of improvement on ceasing before deterioration: up to 7 days
  most efficacious dose: 0.1 mg daily
[9]; Patient 3A (on tricyclic antidepressant and dexamphetamine), 30 mg capsule
  ADHD symptoms, clinical response: temporarily associated with improvement in clarity of thoughts and eye contact during conversation
[9]; Patient 3A, lower dose
  clinical response on reintroduction at a lower dose: initial benefit that associated with rapid loss of efficacy
[9]; Patient 3A, phenyloin withdrawn
  functioning after withdrawal: initial improvement then later worsening to the pre-phenyloin functioning
[9]; in vivo
  side effects of higher doses: significant cognitive side effects
[9]; individuals with symptoms of ADHD, higher doses
  efficacy of higher doses: ineffective
[9]; individuals with symptoms of ADHD, ultra low doses
  symptoms of ADHD, clinical response: improvements were noted
Patients with PTSD [10]; 300 mg per day in three doses, up to 400 mg/day, p<0.05
  increase in right brain volume: 6%
Patients with PTSD [10]; 300 to 400 mg/day
  improvements in memory and cognition: did not achieve statistical significance
[11]
  Minimum typical dose/day effective for mood stabilisation or treatment of epileptic symptoms or events: 200 mg

From patent publication US20140142140A1, “PHARMACEUTICAL COMPOSITION FOR NEUROLOGICAL DISORDERS” (priority 2011, published 2014)
